This is an account of results in patent US20050266435A1, “VR1 receptors and uses thereof” (priority 2004, published 2005).

Test [1] deals with T1, mutant channel S512Y (VR1) (Homo sapiens, UniProt Q8NER1, S512Y). The experiment in a line: Calcium imaging with fura-2 in transfected HEK293 cells, low pH stimulus. The format is cell-based. Further details: expressed in transfected cells; host or cells: HEK293. The protocol:
(§1) The resulting sequence-verified mutant VR1 DNA was inserted into the pcDNA3.1 vector (Invitrogen). Human HEK293 cells were then transfected with the DNA, incubated at 37° C. for 24-48 hrs, and then analyzed for receptor response using calcium imaging techniques.
(§2) Calcium imaging was performed using a Zeiss Axiovert 200M fluorescence microscope equipped with a Photonics Polychrome IV monochrometer fluorescence excitation system as well as a multivalve perfusion system for delivering drugs. Cells were plated on 12 mm glass coverslips and loaded with fura2-AM for 30 min at 37° C. Imaging was performed by alternatively measuring the fluorescence excited at 340 nm and 380 nm at 5 sec time intervals. The ratio between these measured fluorescence values (F340/F380) was then calculated and graphed as a function of time. The 340/380 fluorescence ratio is proportional in a nonlinear way to the intracellular free calcium concentration. Since VR1 is a calcium channel, its opening results in an influx of calcium into the cytoplasm and an increase in the 340/380 fluorescence ratio.
(§3) A normal saline (pH 7.6) wash solution was used as the control solution. […] Compound 18 is named 4-(3-Chloropyridin-2-yl)-N-(4-trifluoromethyl-phenyl)benzamide, and is described and disclosed in commonly owned co-pending International Application No. PCT/US04/033099 filed Oct. […]

For test [2], the target named is T2, mutant VR1 receptor Y511C (Homo sapiens, UniProt Q8NER1, Y511C). The test can be described thus: Calcium imaging with fura-2 in transfected HEK293 cells, low pH (pH 5.1) stimulus. Type of test: cell-based. Further details: expressed in transfected cells; host or cells: HEK293. As to the method: as §1, §2, §3
The target of test [3] is T2, mutant VR1 receptor Y511C. The test can be described thus: Two-electrode voltage clamp in Xenopus oocytes, capsaicin activation. The following applies: capsaicin concentrations as high as 100 μM. Type of test: cell-based. As to the method:
(§4) The ability of capsaicin to activate the mutant VR1 receptors was evaluated in an oocyte system. cDNAs containing the coding sequences of the unmutated human VR1 receptor as well as the mutant receptors Y511A, […], and S512Y were placed into the multiple-cloning site in the pTNT vector (Promega), which contains a T7 promoter sequence, the beta-globin 5′UTR, and a polyadenylation sequence to enhance translation and RNA stability. RNA was synthesized in-vitro using T7 RNA polymerase. The RNA for each channel was injected into Xenopus oocytes (obtained from Nasco, Inc) and incubated at 16° C. for 3-5 days. Standard two-electrode voltage clamp recordings were used to analyze the function of each expressed channel. Solutions were passed over the oocytes using a multiple-valve perfusion system.

The target of test [4] is T3, wild-type human VR1 receptor (Homo sapiens, UniProt Q8NER1).
T3 construct: expressed in transfected cells; host or cells: Xenopus oocytes (RNA injected, pTNT vector)
The test is described as above. The format is cell-based. As to conditions: 10 μM capsaicin. The protocol: as §4

Test [5] concerns the target T4, mutant VR1 receptor Y511A (Homo sapiens, UniProt Q8NER1, Y511A).
T4 construct: expressed in transfected cells; host or cells: Xenopus oocytes (RNA injected, pTNT vector)
Described as above. Type of test: cell-based. As to conditions: capsaicin concentrations as high as 100 μM. The protocol: as §4

For test [6], the target named is T5, mutant channel Y511A (VR1) (Homo sapiens, UniProt Q8NER1, Y511A).
T5 construct: expressed in transfected cells; host or cells: HEK293
The test can be described thus: Calcium imaging with fura-2 in transfected HEK293 cells, low pH stimulus. Type of test: cell-based. The protocol: as §1, §2, §3

For test [7], the target named is T1, mutant channel S512Y (VR1). The experiment in a line: Two-electrode voltage clamp in Xenopus oocytes, capsaicin activation. Further details: expressed in transfected cells; host or cells: Xenopus oocytes (RNA injected, pTNT vector). The format is cell-based. As to the method: as §4
A further test has as its target human VR1 (Homo sapiens, UniProt Q8NER1). The following applies: cited from earlier work.
The target in another test is rat VR1 (Rattus norvegicus, UniProt O35433). As to conditions: cited from earlier work.
Test [8] concerns the target T2, mutant VR1 receptor Y511C. The experiment in a line: Specific binding of 3H-Resiniferatoxin to membranes of 293 HEK cells. Further details: expressed in transfected cells; host or cells: HEK293. As to conditions: 3H-RTX 0.5 nM, absence or presence of unlabeled RTX 200 nM. As to the method: Specific binding of ^3H-Resiniferatoxin (RTX) to membranes of 293 HEK cells expressing human VR 1 and mutant VR 1 receptor Y511C was assessed and the results are presented in FIG. 6. Binding of ^3H-RTX (0.5 nM) to the membranes was conducted in the absence (labeled total binding) or presence (labeled non specific binding) of unlabeled RTX (200 nM) as indicated.

Sequence of rat VR1 (O35433 whole entry): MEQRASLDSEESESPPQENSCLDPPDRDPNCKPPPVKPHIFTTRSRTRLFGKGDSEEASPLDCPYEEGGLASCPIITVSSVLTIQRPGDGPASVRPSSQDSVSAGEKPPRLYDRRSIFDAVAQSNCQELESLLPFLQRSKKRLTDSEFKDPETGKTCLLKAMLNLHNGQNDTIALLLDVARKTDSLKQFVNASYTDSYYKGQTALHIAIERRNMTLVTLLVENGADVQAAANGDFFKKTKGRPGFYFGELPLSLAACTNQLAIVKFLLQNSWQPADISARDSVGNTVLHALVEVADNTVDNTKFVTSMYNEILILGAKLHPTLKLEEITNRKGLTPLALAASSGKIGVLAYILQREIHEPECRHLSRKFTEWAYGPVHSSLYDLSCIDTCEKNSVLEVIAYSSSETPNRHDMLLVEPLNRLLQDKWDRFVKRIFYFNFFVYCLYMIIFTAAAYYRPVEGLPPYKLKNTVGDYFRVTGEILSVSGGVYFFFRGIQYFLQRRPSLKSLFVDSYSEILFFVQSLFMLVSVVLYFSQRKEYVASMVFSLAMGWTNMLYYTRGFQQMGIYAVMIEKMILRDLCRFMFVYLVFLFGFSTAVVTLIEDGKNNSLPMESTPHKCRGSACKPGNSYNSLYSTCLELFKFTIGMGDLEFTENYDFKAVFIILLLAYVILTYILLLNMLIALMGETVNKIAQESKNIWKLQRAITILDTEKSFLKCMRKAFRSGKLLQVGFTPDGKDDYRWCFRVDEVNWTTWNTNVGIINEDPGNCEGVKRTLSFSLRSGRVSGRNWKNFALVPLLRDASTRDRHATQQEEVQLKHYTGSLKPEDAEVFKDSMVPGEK

Consider `COc1cc(CNC(=O)CCCC/C=C/C(C)C)ccc1O` [capsaicin], for which the “sensitivity of channel to capsaicin” value in test [1] and in test [6] was “capsaicin-insensitive” in each case. Moreover, the “response to capsaicin (calcium influx)” value in test [2] (250 nM capsaicin, Y511C in transfected 293 cells) was “no detectable response”. The “capsaicin response (current)” value in test [3] was “no detectable capsaicin response”; in test [4] it was “large response”; in test [5], “no detectable capsaicin response”; in test [7] (10 μM capsaicin (data not shown)), “no detectable response”; in test [7] (100 μM capsaicin), “small capsaicin response”.

For the molecule `COc1cc(CC(=O)OCC2=C[C@H]3[C@@H]4C(C)(C)[C@]4(OC(C)=O)[C@H](OC(=O)Cc4ccccc4)[C@@H](C)[C@]3(O)[C@@H]3C=C(C)C(=O)[C@@]3(O)C2)ccc1O` [PPAHV, phorbol 12-phenylacetate 13 acetate 20-homovanillate], at human VR1 (up to a concentration of 10•M), the “agonist activity on human VR1” value is “essentially inactive”.

As for `Oc1cc2c(cc1O)CN(C(=S)NCCc1ccc(Cl)cc1)CCC2` [capsazine], the “potency of inhibition of capsaicin activation, human VR1 versus rat” value at human VR1 (greater potency on human VR1 receptors than rat) is reported as “approximately 6 fold”. In addition, at human VR1 (human VR1), the “block of VR1-mediated heat response” value is “highly effective” and the “block of low pH-evoked responses” value is on record as “blocked”. In addition, on rat VR1, the “block of low pH-evoked responses” value is on record as “not” and the “inhibition of heat response” value is “weak inhibitor”.

With `C=C(C)[C@]12C[C@@H](C)[C@@]34O[C@](Cc5ccccc5)(O[C@@H]1[C@@H]3C=C(COC(=O)Cc1ccc(O)c(OC)c1)C[C@]1(O)C(=O)C(C)=C[C@@H]41)O2` [RTX, resiniferatoxin], the “binding to the mutant VR1 receptor” value in test [8] was “no significant binding”.

With `O=C(Nc1ccc(C(F)(F)F)cc1)c1ccc(-c2ncccc2Cl)cc1` [Compound 18, 4-(3-Chloropyridin-2-yl)-N-(4-trifluoromethyl-phenyl)benzamide], the half-inhibitory concentration (IC50) in test [2] (mutant VR1 receptor channel, read-out: IC50 for channel blocking activity) was found to be 135 nM.

As usually defined, the IC50 is the concentration that gives 50% inhibition.
